This passage reports IC50, AC50 and EC50 results from ChEMBL document CHEMBL1201862, “PubChem BioAssay data set” (2004).

The source made the active and inactive calls.

Assay [1] can be described thus: cytotoxicity in HEK-293T cells, dose response, cytotoxicity control for TCR NF-kB inhibitor project, luminescence, T-cell screen hits (AID 489026).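 Also: cells exposed to compound about 14 hours before the viability readout.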 It is filed as functional, cell-based.
In assay [2] the test system is INS1. As to the kind of experiment: beta cell apoptosis inhibitors, cytokine rescue, dose response, luminescence, retest (AID 449756).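 Also: cell death triggered by IL-1 beta plus TNF-alpha plus IFN-gamma mixture; protective hits raise ATP signal compared with cytokine alone wells.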 It is filed as functional, cell-based. The conditions noted are these: Rattus norvegicus.
Assay [3] has as its target Galanin receptor type 3 (Homo sapiens, UniProt O60755). The assay is described as follows: Fluorescence-based cell-based primary high throughput dose response assay to identify antagonists of the Galanin Receptor 3 (GalR3). It is filed as functional.
The nature of assay [4]: cells. It is filed as functional, cell-based. The conditions noted are these: HEK-CNG.
The target in assay [5] is T1, COUP transcription factor 2 (Homo sapiens, UniProt P24468).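 Also: HEK293 cells transiently cotransfected with COUP-TFII expression vector and reporter; luciferase reporter luminescence driven by COUP-TFII from the pX2-168 reporter plasmid.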
T1 sequence (P24468 whole entry): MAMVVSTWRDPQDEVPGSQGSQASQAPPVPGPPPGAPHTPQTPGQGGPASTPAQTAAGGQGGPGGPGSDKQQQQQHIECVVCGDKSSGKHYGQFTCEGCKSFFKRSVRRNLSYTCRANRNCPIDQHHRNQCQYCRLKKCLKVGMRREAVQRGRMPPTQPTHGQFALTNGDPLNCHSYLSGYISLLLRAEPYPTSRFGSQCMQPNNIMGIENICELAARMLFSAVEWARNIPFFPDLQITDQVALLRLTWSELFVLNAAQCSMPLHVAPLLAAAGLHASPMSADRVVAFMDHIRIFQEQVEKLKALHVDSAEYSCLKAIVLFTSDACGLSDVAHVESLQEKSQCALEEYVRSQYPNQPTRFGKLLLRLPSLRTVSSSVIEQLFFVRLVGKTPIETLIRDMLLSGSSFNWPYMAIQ
As to the kind of experiment: Luminescence-based cell-based high throughput dose response assay to identify inhibitors of COUP-TFII (NR2F2). The format is functional.

In assay [6] the target is Beta-lactamase (Salmonella choleraesuis (strain SC-B67), UniProt Q5J463). As to the kind of experiment: Epi-absorbance-based counterscreen for selective VIM-2 inhibitors: dose response biochemical high throughput screening assay to identify inhibitors of TEM-1 serine-beta-lactamase. (In general: A counterscreen serves to expose hits that act by an unwanted route or on another target.)
Beta-lactamase (Salmonella choleraesuis (strain SC-B67), UniProt Q5J463), sequence (Q5J463 whole entry): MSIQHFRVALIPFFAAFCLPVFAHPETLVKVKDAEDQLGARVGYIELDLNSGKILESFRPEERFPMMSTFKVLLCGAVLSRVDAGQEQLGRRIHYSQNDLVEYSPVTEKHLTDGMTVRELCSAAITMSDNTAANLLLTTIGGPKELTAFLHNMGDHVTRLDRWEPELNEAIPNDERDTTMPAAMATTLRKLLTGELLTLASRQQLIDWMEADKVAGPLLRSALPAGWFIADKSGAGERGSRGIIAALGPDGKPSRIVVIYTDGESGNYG

The target of assay [7] is T2, Beta-lactamase (Pseudomonas aeruginosa, UniProt Q79MP6). The assay is described as follows: IMP-1 metallo-beta-lactamase inhibitors, dose response, selectivity assay for VIM-2 inhibitor project, biochemical, epi-absorbance (AID 1920).
T2 sequence (Q79MP6 whole entry): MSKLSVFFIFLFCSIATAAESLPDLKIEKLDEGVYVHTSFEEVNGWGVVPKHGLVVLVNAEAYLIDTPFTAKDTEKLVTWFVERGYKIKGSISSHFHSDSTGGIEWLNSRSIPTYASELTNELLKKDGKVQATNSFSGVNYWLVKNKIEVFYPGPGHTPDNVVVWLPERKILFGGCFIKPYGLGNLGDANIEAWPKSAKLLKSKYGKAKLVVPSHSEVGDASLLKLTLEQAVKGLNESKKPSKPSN
The target of assay [8] is T2, Beta-lactamase. The assay is described as follows: […] counterscreen for selective VIM-2 inhibitors: dose response biochemical high throughput screening assay to identify inhibitors of IMP-1 metallo-beta-lactamase.
In assay [9] the target is Mu-type opioid receptor (Homo sapiens, UniProt P35372). It is filed as functional, cell-based.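 Also: U2OS cells with beta-arrestin recruitment to OPRM1 by beta-gal complementation.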
Mu-type opioid receptor, sequence (P35372 whole entry): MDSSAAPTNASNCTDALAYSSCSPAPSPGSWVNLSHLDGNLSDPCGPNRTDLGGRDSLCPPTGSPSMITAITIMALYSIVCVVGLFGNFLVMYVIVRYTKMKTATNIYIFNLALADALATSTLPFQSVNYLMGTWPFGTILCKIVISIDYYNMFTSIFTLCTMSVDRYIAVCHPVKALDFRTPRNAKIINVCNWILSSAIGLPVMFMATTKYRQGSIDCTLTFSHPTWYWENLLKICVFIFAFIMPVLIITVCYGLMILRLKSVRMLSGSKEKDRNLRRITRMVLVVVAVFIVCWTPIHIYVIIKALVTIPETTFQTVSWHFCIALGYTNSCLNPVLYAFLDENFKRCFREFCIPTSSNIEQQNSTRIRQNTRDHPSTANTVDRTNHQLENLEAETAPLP
In assay [10] the target is 5-hydroxytryptamine receptor 2A (Mus musculus, UniProt P35363). The format is functional, cell-based.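 Also: CHO-K1 cells with tagged receptor and beta-arrestin; agonist potency measured as compound-induced activation of the receptor.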
5-hydroxytryptamine receptor 2A, sequence (P35363 whole entry): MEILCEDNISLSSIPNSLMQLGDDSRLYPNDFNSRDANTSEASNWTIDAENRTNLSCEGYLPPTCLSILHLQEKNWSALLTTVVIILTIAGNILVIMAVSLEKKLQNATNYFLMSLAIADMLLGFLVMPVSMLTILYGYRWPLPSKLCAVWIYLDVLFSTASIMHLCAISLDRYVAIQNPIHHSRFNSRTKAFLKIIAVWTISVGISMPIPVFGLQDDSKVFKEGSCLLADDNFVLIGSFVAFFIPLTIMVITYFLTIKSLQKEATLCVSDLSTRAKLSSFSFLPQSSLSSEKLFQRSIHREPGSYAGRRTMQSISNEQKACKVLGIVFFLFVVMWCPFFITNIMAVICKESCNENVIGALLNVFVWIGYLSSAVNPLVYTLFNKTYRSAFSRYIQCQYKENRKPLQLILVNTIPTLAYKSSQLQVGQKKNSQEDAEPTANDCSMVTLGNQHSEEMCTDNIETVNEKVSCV
The target in assay [11] is Paired box protein Pax-8 (Homo sapiens, UniProt Q06710). The assay is described as follows: inhibitors of PAX8-driven TPO luciferase reporter, dose response, RMG-I cells, cherry-pick (AID 687027).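 Also: luciferase reporter driven by Pax8 target thyroperoxidase promoter measured by SteadyGlo luminescence.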 It is filed as functional, cell-based. (In general: In a reporter assay the amount or activity of a reporter protein is the signal.)
Paired box protein Pax-8, sequence (Q06710 whole entry): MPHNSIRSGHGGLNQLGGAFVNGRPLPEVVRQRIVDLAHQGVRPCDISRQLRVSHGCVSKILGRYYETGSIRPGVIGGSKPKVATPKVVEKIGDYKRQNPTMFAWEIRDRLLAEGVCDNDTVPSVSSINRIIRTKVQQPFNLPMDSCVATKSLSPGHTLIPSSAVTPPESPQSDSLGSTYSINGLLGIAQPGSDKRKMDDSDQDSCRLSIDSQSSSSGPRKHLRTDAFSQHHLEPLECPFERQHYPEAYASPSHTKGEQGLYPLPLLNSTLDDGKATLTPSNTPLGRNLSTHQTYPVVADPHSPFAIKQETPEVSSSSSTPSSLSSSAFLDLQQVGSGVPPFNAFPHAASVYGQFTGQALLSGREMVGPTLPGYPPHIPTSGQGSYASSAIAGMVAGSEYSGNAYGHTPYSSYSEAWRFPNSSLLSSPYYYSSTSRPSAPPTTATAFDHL
The nature of assay [12]: inhibitors of CMV-promoter luciferase reporter, dose response, counter-screen for Pax8 inhibitor project, cell-based, HEK293, luminescence, dry powder (AID 743020). The format is functional.
Assay [13] is described as follows: NIH:OVCAR-3 ovarian cancer cell cytotoxicity, dose response, PAX8 inhibitor project, plate reader, dry powder samples (AID 743044). The format is functional, cell-based.
The nature of assay [14]: IGROV1 ovarian cancer cell cytotoxicity, dose response, PAX8 inhibitor project, plate reader, dry powder samples (AID 743043). The format is functional, cell-based. The conditions noted are these: IGROV-1.
A short description of assay [15]: cytotoxicity in OVCAR8 ovarian cancer cells, dose response, PAX8 project, cell-based, plate reader, dry powder samples (AID 743197). The format is functional. The settings on record: OVCAR-8.
Assay [16] in a line: T. cruzi intracellular amastigote growth inhibition, dose response, imaging, CA-I/72 strain, bovine embryo skeletal muscle, dry powder (AID 651885). It is filed as functional, cell-based.

Galanin receptor type 3, sequence (O60755 whole entry): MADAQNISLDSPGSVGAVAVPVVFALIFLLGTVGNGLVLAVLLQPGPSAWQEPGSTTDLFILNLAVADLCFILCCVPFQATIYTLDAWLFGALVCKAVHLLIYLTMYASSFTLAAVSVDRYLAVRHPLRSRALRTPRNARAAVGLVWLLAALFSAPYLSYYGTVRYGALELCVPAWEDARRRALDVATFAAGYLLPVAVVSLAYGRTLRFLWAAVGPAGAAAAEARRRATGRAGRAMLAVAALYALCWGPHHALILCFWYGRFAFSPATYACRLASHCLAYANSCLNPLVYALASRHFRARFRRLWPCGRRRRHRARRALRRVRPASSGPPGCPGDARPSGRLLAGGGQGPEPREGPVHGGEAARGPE

On to `Cn1nc(C(C)(C)C)cc1C(=O)NCc1cc(F)cc2c1OCOC2`, for which the IC50 (usually the midpoint of a concentration-inhibition curve) was > 80 µM (inactive) in assay [1], 0.987 µM (active) in [3] and 6.69 µM (active) in assay [5]. Moreover, the AC50 (in general, the concentration at which the activity in the assay is half-maximal) in assay [2] was 4.13 µM (active). In assay [4], the EC50 (commonly the concentration giving half of the maximal effect) was > 29.9 µM (inactive).
As for `CC1=C(C(=O)O)N2C(=O)C(NC(=O)c3nn(C)cc3[N+](=O)[O-])C2SC1` (configuration not stated), the IC50 in [6], in assay [7] and in [8] was > 59.6 µM (inactive) in each case.
In the case of `O=C(C1CCN(CCCc2ccccc2)CC1)N1CCCCC1`, the EC50 in assay [9] is 92.5 µM (inactive); in assay [10], 76.1 µM (inactive).
In the case of `C[C@@H]1CCCCO[C@H](CN(C)CC2CCCCC2)[C@H](C)CN([C@@H](C)CO)C(=O)c2cc(NS(=O)(=O)c3ccc(Cl)cc3)ccc2O1`, the AC50 in [11] is 6.43 µM (active); in [12], 50.5 µM (active).
As to `Cc1ccc(S(=O)(=O)N(C)C[C@H]2OCCCC[C@H](C)Oc3ccc(NS(=O)(=O)c4ccc(Cl)cc4)cc3C(=O)N([C@H](C)CO)C[C@@H]2C)cc1`, the AC50 was 4.09 µM (active) in [11], 17.9 µM (active) in assay [13], 45.7 µM (active) in assay [14] and 31.7 µM (active) in assay [15].
On to `CNC[C@@H]1Oc2c(NC(=O)c3ccncc3)cccc2C(=O)N(C(C)C)C[C@H]1C`, for which the IC50 in assay [16] was > 20 µM (inactive).
